Results on eight molecules are retold here after patent US4472408A, “Substituted trifluoromethylphenyltetrahydropyridines having an anorectic activity” (Sanofi, priority 1981, dated 1984).

Structures can show the parent of a compound that is named as a salt. Where two headings read alike, the source gives them in different places.

A short description of data set [1]: acute toxicity, LD50 in the rat by oral or intraperitoneal route. To be noted: in vivo. From the text:
the acute toxicity, expressed as LD50 in the rat by the oral or intraperitoneal route (A);

Data set [2] concerns cerebral serotonin. The data set is described as follows: cerebral rates of serotonin after i.p. or oral administration (Curzon and Green). It is filed as in vivo. From the text:
Table II hereinbelow summarises the cerebral rates of serotonin, in percentage with respect to the controls, after intraperitoneal or oral administration of four representative compounds of the present invention. The determination of the cerebral rates, according to Curzon and Green (Brit. J. Pharmacol. 39, 653, 1970) was effected one hour and/or two hours after administration. Fenfluramine was used as reference product.

Data set [3] is described as follows: anorectic activity, food intake in the rat. The data set is classed as in vivo. The note with it: in vivo, read-out: A/B, ratio acute toxicity to anorectic activity (therapeutic index). The protocol:
(§1) The anorectic activity was assessed by the method of the food intake in the rat. Female rats weighing 200 g are used, which were trained for 10 days to eat during a period of 4 hours and selected on the eighth day. At the end of the tenth day, the randomised animals were divided into a "control group" treated by the vehicle alone, and into several "treated groups". Treatment was effected by the intraperitoneal or oral route 30 minutes or 1 hour before presentation of the food and the quantity of food therefor taken during the first hour was then measured.
(§2) the anorectic activity, expressed as oral or intraperitoneal dose inhibiting by 50% the food intake (ID50, B);
(§3) the ratio between the acute toxicity and the anorectic activity which expresses the therapeutic index related to the acute toxocity (A/B).

For data set [4], the system named is food intake in the rat. The data set is described as follows: anorectic activity, food intake in the rat. The data set is classed as in vivo. The note with it: 1 h, food taken during first hour, read-out: ID50 (B), dose inhibiting by 50% the food intake. As to the method: as §1, §2, §3
The conditions of data set [5]: background; cited from earlier work.
In data set [6] the test system is food intake in the rat. To be noted: background; cited from earlier work.
For data set [7], the system named is cerebral serotonin. To be noted: at doses very close to the anorectic dose; Arch. Intern. Pharmacodyn. Ther. 1967; cited from earlier work.
Data set [8] concerns the target post-synaptic serotonin receptors. The data set is described as follows: 3H-serotonin binding to rat cortex membranes (Peroutka and Snyder). As to the method:
The affinity of the compounds of the present invention for the post-synaptic serotinin receptors was determined according to the method of Peroutka and Snyder (Molec. Pharmacol. 1979, 16, 687-699) which consists in incubating rat cortex membranes with a fixed concentration of ^3 H-serotonin in the presence of different concentrations of product. […] Fenfluramine was used as reference compound.

Where [9] appears, read: i.p., 7.5 mg/kg, 2 hrs (fenfluramine: significant P < 0.01).

With `Cl.N#CCCN1CC=C(c2cccc(C(F)(F)F)c2)CC1` [Example 2, 4-(3-trifluoromethylphenyl)-1-(2-cyanoethyl)-1,2,3,6-tetrahydropyridine hydrochloride], the LD50 in data set [1] (ip) was found to be 206 mg/kg; in data set [1] (oral), 254 mg/kg. In addition, the “cerebral rates of serotonin” value in the data set on cerebral serotonin [2] (setting [9]) is 128 % with respect to controls; with cerebral serotonin [2] (i.p., 15.0 mg/kg, 1 hr), 131.0 % with respect to controls; with cerebral serotonin [2] (i.p., 15.0 mg/kg, 2 hrs), 146 % with respect to controls; in the data set on cerebral serotonin [2] (i.p., 30.0 mg/kg, 2 hrs), 146 % with respect to controls. The selectivity ratio in data set [3] (ip) was 17.1; in data set [3] (oral) it was 26.7. The ED50 in the data set on food intake in the rat [4] (oral) amounted to 9.5 mg/kg; in the data set with food intake in the rat [4] (ip, i.p.) it was 12 mg/kg.
On to `Cl.N#CCCCN1CC=C(c2cccc(C(F)(F)F)c2)CC1` [Example 3, 4-(3-trifluoromethylphenyl)-1-(3-cyanopropyl)-1,2,3,6-tetrahydropyridine hydrochloride], for which the figures for the LD50 in data set [1] (ip) and in data set [1] (oral) were 258 mg/kg and 538 mg/kg, respectively. Moreover, the results for the selectivity ratio in data set [3] (ip) and in data set [3] (oral) were 23.3 and 46, respectively. Moreover, the ED50 in the data set on food intake in the rat [4] (oral) was found to be 11.7 mg/kg; in the data set with food intake in the rat [4] (ip, i.p.) it was 11.1 mg/kg.
As for `N#CCCCCN1CC=C(c2cccc(C(F)(F)F)c2)CC1` [Example 4, 4-(3-trifluoromethylphenyl-1-(4-cyanobutyl)-1,2,3,6-tetrahydropyridine hydrochloride], the LD50 in data set [1] (oral) turned out to be 336 mg/kg. In addition, the selectivity ratio in data set [3] (oral) turned out to be 32. Further, the ED50 with food intake in the rat [4] (oral) stood at 10.5 mg/kg.
In data set [1] (ip), `CC(=O)CN1CC=C(c2cccc(C(F)(F)F)c2)CC1.Cl` [Example 5, 4-(3-trifluoromethylphenyl)-1-acetonyl-1,2,3,6-tetrahydropyridine hydrochloride] displayed an LD50 of 165 mg/kg. Besides, in data set [3] (ip), the selectivity ratio is 15.3. For the same molecule, the ED50 in the data set on food intake in the rat [4] (ip, i.p.) came to 10.8 mg/kg.
For `CC(=O)CCN1CC=C(c2cccc(C(F)(F)F)c2)CC1.Cl` [Example 6, 4-(3-trifluoromethylphenyl)-1-(3-oxobutyl)-1,2,3,6-tetrahydropyridine hydrochloride], the LD50 in data set [1] (ip) was found to be 134 mg/kg; in data set [1] (oral), 299 mg/kg. The “cerebral rates of serotonin” value was 109 % with respect to controls in the data set with cerebral serotonin [2] (i.p., 3.25 mg/kg, 2 hrs); 108 % with respect to controls with cerebral serotonin [2] (setting [9]); 116 % with respect to controls with cerebral serotonin [2] (i.p., 15.0 mg/kg, 2 hrs). Moreover, the selectivity ratio in data set [3] (ip) stood at 20.6; in data set [3] (oral), 25.3. Moreover, the ED50 in the data set with food intake in the rat [4] (oral) is 11.8 mg/kg; in the data set on food intake in the rat [4] (ip, i.p.), 6.5 mg/kg.
Take `Cl.FC(F)(F)c1cccc(C2=CCN(CC3CC3)CC2)c1` [Example 7, 4-(3-trifluoromethylphenyl)-1-cyclopropylmethyl-1,2,3,6-tetrahydropyridine hydrochloride]: the LD50 in data set [1] (ip) was determined as 135 mg/kg. In addition, the “cerebral rates of serotonin” value in the data set with cerebral serotonin [2] (i.p., 3.25 mg/kg, 2 hrs) was 111 % with respect to controls; in the data set on cerebral serotonin [2] (setting [9]), 123 % with respect to controls; with cerebral serotonin [2] (i.p., 15.0 mg/kg, 2 hrs) it was 119 % with respect to controls. For the same molecule, the selectivity ratio in data set [3] (ip) was 24.6. Further, the ED50 with food intake in the rat [4] (ip, i.p.) is 5.5 mg/kg.
In turn, `Cl.FC(F)(F)c1cccc(C2=CCN(CCC3CCCCC3)CC2)c1` [Example 10, 4-(3-trifluoromethylphenyl)-1-(2-cyclohexylethyl)-1,2,3,6-tetrahydropyridine hydrochloride] gave an LD50 in data set [1] (oral) of 488 mg/kg. The “cerebral rates of serotonin” value was 99 % with respect to controls in the data set with cerebral serotonin [2] (oral, 1.25 mg/kg, 2 hrs); 95 % with respect to controls in the data set with cerebral serotonin [2] (oral, 2.5 mg/kg, 2 hrs); 101 % with respect to controls in the data set with cerebral serotonin [2] (oral, 5 mg/kg, 2 hrs). For the same molecule, the selectivity ratio in data set [3] (oral) was 188. The ED50 with food intake in the rat [4] (oral) was determined as 2.6 mg/kg.
In the case of `CCNC(C)Cc1cccc(C(F)(F)F)c1` (centres unmarked) [fenfluramine, reference compound], the “sedative or stimulant action (in words)” value in data set [5] is recorded as “instead of being stimulant, has a certain sedative action”. Moreover, the “anorectic activity (in words)” value in the data set on food intake in the rat [6] is recorded as “excellent anorectic activity”. Further, the entries for the “effect on cerebral rates of serotonin (in words)” value in the data set on cerebral serotonin [7] and with cerebral serotonin [2] (in vivo) were “induces a significant reduction in the cerebral rates of serotonin” and “induces a significant reduction of cerebral serotonin”, respectively. The “cerebral rates of serotonin” value is given as 82.9 % with respect to controls with cerebral serotonin [2] (i.p., 5 mg/kg, 1 hr, significant P < 0.05); 81.6 % with respect to controls in the data set on cerebral serotonin [2] (i.p., 7.5 mg/kg, 1 hr, significant P < 0.05); 53.1 % with respect to controls with cerebral serotonin [2] (setting [9]); 79.0 % with respect to controls with cerebral serotonin [2] (i.p., 10 mg/kg, 1 hr, significant P < 0.01). Also, the selectivity ratio in data set [3] (ip) was 15.8; in data set [3] (oral), 25.1. Further, the ED50 in the data set with food intake in the rat [4] (oral) worked out at 4 mg/kg; with food intake in the rat [4] (ip, i.p.), 5.4 mg/kg. The IC50 in data set [8] is > 10 µM.

One may read the LD50 as the dose at which mortality reaches 50%. A low value points to greater toxicity. For orientation: IC50 means the point on the concentration scale where inhibition reaches its midpoint.
